This is an account of results in ChEMBL document CHEMBL5053560, “Nanoparticular Inhibitors of Flavivirus Proteases from Zika, West Nile and Dengue Virus Are Cell-Permeable Antivirals” (ACS Med Chem Lett, 2021).

The structures appear in SMILES notation.

One experiment relates to West Nile virus. The experiment in a line: Antiviral activity against West Nile virus infected in human Huh-7 cells assessed as inhibition of viral replication at 12.5 uM measured after 48 hrs by plaque assay relative to control. The class given is functional.
The next experiment relates to Zika virus. The experiment in a line: Antiviral activity against Zika virus infected in human Huh-7 cells assessed as inhibition of viral replication at 12.5 uM measured after 48 hrs by Renilla reporter based luciferase assay relative to control. The class given is functional.
Experiment [1] has as its target T1, Genome polyprotein (dengue virus type 2, UniProt P29990). The experiment can be described thus: Inhibition of recombinant N-terminal His-tagged DENV NS2B-NS3 protease expressed in Escherichia coli BL21(DE3) using Boc-GRR-AMC as substrate measured by flourescence based plate reader assay.
The target in experiment [2] is T2, Genome polyprotein (West Nile virus, UniProt P06935). The experiment can be described thus: Competitive inhibition of C-terminal His-tagged WNV NSB2 (52 to 96 amino acids)-NS3 (1 to 184 amino acids) protease expressed in Escherichia coli BL21(DE3) using Boc-GRK-AMC as substrate measured by flourescence based plate reader assay.
For experiment [3], the target named is T1, Genome polyprotein. The experiment can be described thus: Competitive inhibition of recombinant N-terminal His-tagged DENV NS2B-NS3 protease expressed in Escherichia coli BL21(DE3) using Boc-GRR-AMC as substrate measured by flourescence based plate reader assay.
The target in experiment [4] is T2, Genome polyprotein. The experiment can be described thus: Inhibition of C-terminal His-tagged WNV NSB2 (52 to 96 amino acids)-NS3 (1 to 184 amino acids) protease expressed in Escherichia coli BL21(DE3) using Boc-GRK-AMC as substrate measured by flourescence based plate reader assay.
The target of experiment [5] is T3, Nonstructural protein 3 (Zika virus, UniProt A0A024AXB9). The experiment in a line: Inhibition of C-terminal His-tagged ZIKV NSB2 (52 to 96 amino acids)-NS3 (1 to 184 amino acids) protease expressed in Escherichia coli BL21(DE3) preincubated for 10 mins followed by addition of Boc-GKR-AMC substrate and measured by flourescence based plate reader assay.
The target of experiment [6] is T3, Nonstructural protein 3. The experiment can be described thus: Competitive inhibition of C-terminal His-tagged ZIKV NSB2 (52 to 96 amino acids)-NS3 (1 to 184 amino acids) protease expressed in Escherichia coli BL21(DE3) preincubated for 10 mins followed by addition of Boc-GKR-AMC substrate and measured by flourescence based plate reader assay.

T3 sequence (A0A024AXB9 whole entry, the tested form may be a part): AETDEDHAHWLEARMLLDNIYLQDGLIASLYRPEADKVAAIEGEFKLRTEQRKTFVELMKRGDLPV
T2 sequence (P06935 1371-1501 limits assumed): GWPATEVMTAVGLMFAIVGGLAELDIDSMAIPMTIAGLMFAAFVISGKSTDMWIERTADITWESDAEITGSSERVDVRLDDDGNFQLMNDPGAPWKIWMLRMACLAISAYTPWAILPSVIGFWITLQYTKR
T2 sequence (P06935 1502-2120 limits assumed): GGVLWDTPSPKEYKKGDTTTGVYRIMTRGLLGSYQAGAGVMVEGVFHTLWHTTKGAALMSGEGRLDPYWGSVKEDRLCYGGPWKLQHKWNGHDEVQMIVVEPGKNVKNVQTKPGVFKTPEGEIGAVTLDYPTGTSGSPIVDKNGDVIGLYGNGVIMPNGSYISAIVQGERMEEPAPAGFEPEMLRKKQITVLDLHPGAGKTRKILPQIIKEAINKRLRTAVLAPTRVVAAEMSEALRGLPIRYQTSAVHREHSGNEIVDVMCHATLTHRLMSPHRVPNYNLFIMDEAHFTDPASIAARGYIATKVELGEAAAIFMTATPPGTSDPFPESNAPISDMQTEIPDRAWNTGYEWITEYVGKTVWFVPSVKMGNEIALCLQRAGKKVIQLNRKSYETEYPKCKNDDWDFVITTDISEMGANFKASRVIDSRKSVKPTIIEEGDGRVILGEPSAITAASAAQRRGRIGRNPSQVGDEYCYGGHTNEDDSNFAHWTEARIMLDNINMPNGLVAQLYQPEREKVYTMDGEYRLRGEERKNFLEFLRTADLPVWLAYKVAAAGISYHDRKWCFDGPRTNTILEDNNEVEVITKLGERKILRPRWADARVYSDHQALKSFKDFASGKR
T1 sequence (P29990 1346-1475 limits assumed): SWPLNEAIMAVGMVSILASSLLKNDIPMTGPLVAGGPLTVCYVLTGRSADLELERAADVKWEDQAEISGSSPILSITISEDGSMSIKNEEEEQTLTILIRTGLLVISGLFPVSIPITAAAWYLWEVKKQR
T1 sequence (P29990 1476-2093 limits assumed): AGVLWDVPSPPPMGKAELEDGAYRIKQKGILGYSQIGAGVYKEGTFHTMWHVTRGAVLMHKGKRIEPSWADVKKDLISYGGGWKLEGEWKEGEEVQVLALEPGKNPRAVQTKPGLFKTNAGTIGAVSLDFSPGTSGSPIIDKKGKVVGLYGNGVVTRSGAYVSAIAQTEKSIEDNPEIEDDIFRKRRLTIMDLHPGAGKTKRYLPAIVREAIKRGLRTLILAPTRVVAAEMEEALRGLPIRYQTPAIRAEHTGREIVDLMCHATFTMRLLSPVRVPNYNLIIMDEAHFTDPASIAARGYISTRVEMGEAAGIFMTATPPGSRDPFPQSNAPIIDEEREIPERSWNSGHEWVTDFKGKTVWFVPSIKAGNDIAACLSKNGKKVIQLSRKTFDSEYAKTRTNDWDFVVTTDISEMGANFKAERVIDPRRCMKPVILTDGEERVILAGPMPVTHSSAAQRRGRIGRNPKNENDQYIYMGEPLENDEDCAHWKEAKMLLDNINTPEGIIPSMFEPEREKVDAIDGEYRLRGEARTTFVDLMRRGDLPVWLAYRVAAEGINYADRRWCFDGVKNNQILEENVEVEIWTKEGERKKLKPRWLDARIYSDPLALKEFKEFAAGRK

By inhibition is commonly meant the percentage by which the read-out fell short of the control. `NC(=O)c1ncn([C@@H]2O[C@H](CO)[C@@H](O)[C@H]2O)n1` [RIBAVIRIN]: the inhibition at 12.5 µM in the experiment on West Nile virus worked out at 90%; in the experiment on Zika virus, 80%.
The term IC50 denotes the concentration that gives 50% inhibition. The Ki is a dissociation constant, usually derived from enzyme kinetics or from competition with a known ligand. With `N=C(N)N[C@H]1CC[C@H](CNC(=O)[C@H](CCCCN)NC(=O)[C@H](CCCCN)NC(=O)Cc2ccc(OCCCCS)cc2)CC1`, the figures for the half-inhibitory concentration (IC50) on Genome polyprotein [1], against Genome polyprotein [4] and on Nonstructural protein 3 [5] were 17100 nM, 460 nM and 125 nM, respectively. Further, the Ki on Genome polyprotein [2] amounted to 343 nM; on Genome polyprotein [3] it was 12700 nM; at Nonstructural protein 3 [6], 79 nM.
